Source: patent US20120034613A1, “Apparatus and Method for Testing Relationships Between Gene Expression and Physical Appearance of Skin” (NSE Products, Inc., priority 2010, published 2012)

Test system: EpidermFT™ Skin Model (EFT-400) full thickness skin cultures
Assay: Affymetrix GeneChip HG U133 Plus 2.0 microarray global gene expression, agent-exposed vs untreated skin cultures
Assay type: cell-based, human
Conditions: Salicin 0.5% vs Untreated Control, 24 hr; direction down

**Q.** How did the “Fold change IDH2 (210045_at)” value turn out when `OCc1ccccc1O[C@@H]1O[C@H](CO)[C@@H](O)[C@H](O)[C@H]1O` [Salicin, 2-(Hydroxymethyl)phenyl β-D-glucospyranoside] was run?
**A.** 2.059

**Q.** And the “Fold change IL22RA1 (220056_at)” value?
**A.** 2.023

**Q.** And the “Fold change INPP5D (203332_s_at)” value?
**A.** 2.061

**Q.** What about the “Fold change ITGA3 (201474_s_at)” value of the same molecule?
**A.** 2.052

**Q.** What about the “Fold change JAG1 (209099_x_at)” value of the same molecule?
**A.** 2.044

**Q.** And the “Fold change JAG1 (216268_s_at)” value?
**A.** 2.123

**Q.** And the “Fold change JMJD7 /// JMJD7-PLA2G4B /// PLA2G4B (222256_s_at)” value?
**A.** 2.101

**Q.** What about the “Fold change KCNK7 (224055_x_at)” value of the same molecule?
**A.** 2.127

**Q.** And the “Fold change KCTD15 (222668_at)” value?
**A.** 2.037

**Q.** And the “Fold change KIF1B (209234_at)” value?
**A.** 2.105

**Q.** And the “Fold change KIF1B (225878_at)” value?
**A.** 2.14

**Q.** What about the “Fold change KLK1 (216699_s_at)” value of the same molecule?
**A.** 2.169

**Q.** And the “Fold change KRT5 (201820_at)” value?
**A.** 2.154

**Q.** And the “Fold change KRT6A (209125_at)” value?
**A.** 2.034

**Q.** What about the “Fold change KRT10 (207023_x_at)” value of the same molecule?
**A.** 2.066

**Q.** And the “Fold change KRTCAP3 (235148_at)” value?
**A.** 2.158

**Q.** What about the “Fold change LMNA (212089_at)” value of the same molecule?
**A.** 2.1

**Q.** What about the “Fold change LMNA (1554600_s_at)” value of the same molecule?
**A.** 2.053

**Q.** What about the “Fold change LMNB1 (203276_at)” value of the same molecule?
**A.** 2.146

**Q.** What about the “Fold change LOC284837 (1563088_a_at)” value of the same molecule?
**A.** 2.115

**Q.** And the “Fold change LOC286440 (209733_at)” value?
**A.** 2.16

**Q.** And the “Fold change LOC400027 (226413_at)” value?
**A.** 2.041

**Q.** And the “Fold change LOC401233 (1558882_at)” value?
**A.** 2.002

**Q.** What about the “Fold change LOC648245 (227739_at)” value of the same molecule?
**A.** 2.064

**Q.** And the “Fold change LOC652968 (233528_s_at)” value?
**A.** 2.038

**Q.** And the “Fold change LOC727820 (227384_s_at)” value?
**A.** 2.055

**Q.** What about the “Fold change LOC100128443 /// MAST4 (210958_s_at)” value of the same molecule?
**A.** 2.131

**Q.** What about the “Fold change LOC100128822 (235174_s_at)” value of the same molecule?
**A.** 2.067

**Q.** What about the “Fold change LOC100130837 (242255_at)” value of the same molecule?
**A.** 2.078

**Q.** What about the “Fold change LOC100131262 (1558152_at)” value of the same molecule?
**A.** 2.081

**Q.** And the “Fold change LOC100131851 /// LOC100134497 /// LOC401002 /// LOC646674 /// SSBP3 (222482_at)” value?
**A.** 2.025

**Q.** What about the “Fold change LOC100133772 /// SLC16A5 (206600_s_at)” value of the same molecule?
**A.** 2.044

**Q.** What about the “Fold change LOC100134937 (229685_at)” value of the same molecule?
**A.** 2.12

**Q.** What about the “Fold change LPHN1 (47560_at)” value of the same molecule?
**A.** 2.092

**Q.** What about the “Fold change LY75 (205668_at)” value of the same molecule?
**A.** 2.028

**Q.** And the “Fold change LYSMD4 (228954_at)” value?
**A.** 2.116

**Q.** What about the “Fold change MAFB (218559_s_at)” value of the same molecule?
**A.** 2.112

**Q.** What about the “Fold change MAPRE2 (202501_at)” value of the same molecule?
**A.** 2.078

**Q.** And the “Fold change MEGF9 (212831_at)” value?
**A.** 2.176

**Q.** And the “Fold change MFAP5 (213764_s_at)” value?
**A.** 2.112

**Q.** What about the “Fold change MIB2 (226644_at)” value of the same molecule?
**A.** 2.032

**Q.** What about the “Fold change MPP7 (238451_at)” value of the same molecule?
**A.** 2.14

**Q.** And the “Fold change MTHFR (226929_at)” value?
**A.** 2.073

**Q.** What about the “Fold change MTMR1 (214975_s_at)” value of the same molecule?
**A.** 2.146

**Q.** What about the “Fold change MUC1 (213693_s_at)” value of the same molecule?
**A.** 2.138

**Q.** And the “Fold change MYO18A /// TIAF1 (202039_at)” value?
**A.** 2.04

**Q.** What about the “Fold change NBEAL2 (212443_at)” value of the same molecule?
**A.** 2.05

**Q.** What about the “Fold change NCF2 (209949_at)” value of the same molecule?
**A.** 2.128

**Q.** And the “Fold change NCRNA00086 (238697_at)” value?
**A.** 2.098

**Q.** What about the “Fold change PAIP1 (208051_s_at)” value of the same molecule?
**A.** 2.141

**Q.** And the “Fold change PAIP2B (221868_at)” value?
**A.** 2.043

**Q.** What about the “Fold change PAWR (204005_s_at)” value of the same molecule?
**A.** 2.161

**Q.** What about the “Fold change PAWR (229515_at)” value of the same molecule?
**A.** 2.15

**Q.** What about the “Fold change PDIK1L (227255_at)” value of the same molecule?
**A.** 2.059

**Q.** And the “Fold change PERP (217744_s_at)” value?
**A.** 2.176

**Q.** And the “Fold change PIGW (1558292_s_at)” value?
**A.** 2.085

**Q.** And the “Fold change PLEKHA2 (225136_at)” value?
**A.** 2.159

**Q.** And the “Fold change PLS3 (201215_at)” value?
**A.** 2.167

**Q.** And the “Fold change PNMA2 (209598_at)” value?
**A.** 2.146

**Q.** What about the “Fold change POLE2 (205909_at)” value of the same molecule?
**A.** 2.104

**Q.** What about the “Fold change POLH (231115_at)” value of the same molecule?
**A.** 2.029

**Q.** And the “Fold change POLR3B (219459_at)” value?
**A.** 2.135

**Q.** And the “Fold change POU3F1 (208345_s_at)” value?
**A.** 2.16

**Q.** And the “Fold change PPAP2C (209529_at)” value?
**A.** 2.033

**Q.** And the “Fold change PPP1CB (201409_s_at)” value?
**A.** 2.054

**Q.** What about the “Fold change PPP2CA (208652_at)” value of the same molecule?
**A.** 2.035

**Q.** And the “Fold change PRDX2 (39729_at)” value?
**A.** 2.068

**Q.** And the “Fold change PRKX (204061_at)” value?
**A.** 2.015

**Q.** What about the “Fold change PTCH1 (209815_at)” value of the same molecule?
**A.** 2.148

**Q.** What about the “Fold change PTGFR (1555097_a_at)” value of the same molecule?
**A.** 2.022

**Q.** And the “Fold change PVRL1 (225211_at)” value?
**A.** 2.08

**Q.** And the “Fold change RAB7B (1553982_a_at)” value?
**A.** 2.095

**Q.** What about the “Fold change RAPGEFL1 (218657_at)” value of the same molecule?
**A.** 2.162

**Q.** And the “Fold change RHOV (241990_at)” value?
**A.** 2.107

**Q.** And the “Fold change RICS (203431_s_at)” value?
**A.** 2.143

**Q.** And the “Fold change RNF170 (226104_at)” value?
**A.** 2.034

**Q.** And the “Fold change RORA (235567_at)” value?
**A.** 2.083

**Q.** What about the “Fold change RPS6KA5 (204633_s_at)” value of the same molecule?
**A.** 2.051

**Q.** And the “Fold change RPS6KB2 (203777_s_at)” value?
**A.** 2.074

**Q.** And the “Fold change SCRN3 (222849_s_at)” value?
**A.** 2.115

**Q.** What about the “Fold change SDCCAG8 (243963_at)” value of the same molecule?
**A.** 2.133

**Q.** And the “Fold change SEMA4D (203528_at)” value?
**A.** 2.021

**Q.** What about the “Fold change SERPINB1 (213572_s_at)” value of the same molecule?
**A.** 2.014

**Q.** What about the “Fold change SETBP1 (227478_at)” value of the same molecule?
**A.** 2.148

**Q.** And the “Fold change SHROOM2 (204967_at)” value?
**A.** 2.088

**Q.** What about the “Fold change SLC5A3 (212944_at)” value of the same molecule?
**A.** 2.165

**Q.** And the “Fold change SLC24A3 (219090_at)” value?
**A.** 2.138

**Q.** And the “Fold change SLC45A4 (225598_at)” value?
**A.** 2.071

**Q.** What about the “Fold change SLCO3A1 (219229_at)” value of the same molecule?
**A.** 2.162

**Q.** And the “Fold change SMAP2 (225282_at)” value?
**A.** 2.14

**Q.** And the “Fold change SMCR7 (235896_s_at)” value?
**A.** 2.152

**Q.** What about the “Fold change SNX21 (1553960_at)” value of the same molecule?
**A.** 2.031

**Q.** And the “Fold change SNX24 (218705_s_at)” value?
**A.** 2.152

**Q.** And the “Fold change SORD (201563_at)” value?
**A.** 2.01

**Q.** What about the “Fold change ST8SIA4 (230836_at)” value of the same molecule?
**A.** 2.021

**Q.** And the “Fold change STK24 (208854_s_at)” value?
**A.** 2.165

**Q.** And the “Fold change SYNGR2 (201079_at)” value?
**A.** 2.14

**Q.** What about the “Fold change TANC1 (225308_s_at)” value of the same molecule?
**A.** 2.118

**Q.** What about the “Fold change TCEA3 (226388_at)” value of the same molecule?
**A.** 2.034

**Q.** And the “Fold change TCHP (223455_at)” value?
**A.** 2.126

**Q.** What about the “Fold change TGOLN2 (1554608_at)” value of the same molecule?
**A.** 2.114

**Q.** And the “Fold change THBD (203888_at)” value?
**A.** 2.109

**Q.** What about the “Fold change TIMM22 (219184_x_at)” value of the same molecule?
**A.** 2.067

**Q.** What about the “Fold change TMC5 (222904_s_at)” value of the same molecule?
**A.** 2.096

**Q.** What about the “Fold change TMEM19 (226860_at)” value of the same molecule?
**A.** 2.032

**Q.** And the “Fold change TMEM45A (219410_at)” value?
**A.** 2.136

**Q.** What about the “Fold change TMEM50B (225182_at)” value of the same molecule?
**A.** 2.096

**Q.** What about the “Fold change TMEM80 (65630_at)” value of the same molecule?
**A.** 2.031

**Q.** What about the “Fold change TP53I3 (210609_s_at)” value of the same molecule?
**A.** 2.13

**Q.** What about the “Fold change TRAF3IP2 (202987_at)” value of the same molecule?
**A.** 2.079

**Q.** What about the “Fold change TRIM2 (202342_s_at)” value of the same molecule?
**A.** 2.062

**Q.** What about the “Fold change TTC30B (1554588_a_at)” value of the same molecule?
**A.** 2.011

**Q.** And the “Fold change VPS4B (218171_at)” value?
**A.** 2.031

**Q.** And the “Fold change WNK1 (39313_at)” value?
**A.** 2.008
